From PubChem BioAssay (NCI) come the findings set out here.

Each structure is given as a SMILES string.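 Each compound was tested at five concentrations against cells in 96-well plates for 48 hours. GI50 = concentration required for 50% inhibition of growth. TGI is the concentration that stops growth completely.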 A value given as a limit tells only on which side of the number the result lay.

Among the test systems are HCC-2998 colon; TK-10 renal; A498 renal; SW-620 colon; MOLT-4 leukemia; SF-295 CNS; CAKI-1 renal; MDA-MB-435; HL-60(TB) leukemia; MCF7 breast.
Common to all, as to assay: NCI anticancer screen, dose series, 48 h

Consider `COc1cc([N+](=O)[O-])c(OC)cc1-c1nc2sc(Cl)cn2c1/C(N)=N/C(=N)N`, for which the GI50 in the test on HCC-2998 colon was 1.99 µM; in the test with TK-10 renal, 7.31 µM; in the test with A498 renal, 20.7 µM; in the test on SW-620 colon, 2.15 µM; in the test on MOLT-4 leukemia, 3.09 µM; with SF-295 CNS, 9.94 µM. For the same compound, the figures for the GI50 in the test with CAKI-1 renal and in the test on MDA-MB-435 were 39 µM and 1.9 µM, respectively. The TGI with HCC-2998 colon was 4.15 µM; in the test with TK-10 renal, 24.3 µM; in the test with A498 renal it was 48.6 µM; with SW-620 colon, 4.63 µM; in the test with MOLT-4 leukemia, greater than 100 µM; in the test with SF-295 CNS it was 36.7 µM. Besides, the TGI in the test with CAKI-1 renal is greater than 100 µM; with MDA-MB-435 it was 4.64 µM.

In the case of `COc1cnc2c(c1)C(=O)c1c-2n(CCCn2ccnc2)c(=O)c2cc(F)ccc12`, the GI50 is 0.361 µM with HCC-2998 colon; 0.0508 µM in the test on A498 renal; 0.0221 µM with SW-620 colon; less than 0.01 µM in the test on MOLT-4 leukemia; less than 0.01 µM in the test on SF-295 CNS; 0.0363 µM in the test with HL-60(TB) leukemia. In the test with MDA-MB-435, the GI50 was 0.121 µM. Besides, the TGI in the test on HCC-2998 colon worked out at 79.5 µM; in the test on A498 renal, 0.218 µM; in the test on SW-620 colon it was 1.01 µM; in the test on MOLT-4 leukemia, 0.131 µM; in the test with SF-295 CNS, 0.352 µM; with HL-60(TB) leukemia it was 0.311 µM. Moreover, the TGI with MDA-MB-435 worked out at 0.832 µM.

Take `COc1cc(/C=C2/C(=O)N(C(=O)OCC(C)C)C(Cc3cc(OC)c(OC)c(C)c3OC)C(=O)N2Cc2ccccc2)c(OC)c(C)c1OC` (stereo not drawn): the TGI with HCC-2998 colon, in the test with TK-10 renal, with A498 renal, in the test on SW-620 colon, in the test with MOLT-4 leukemia and in the test with SF-295 CNS was greater than 100 µM throughout. The TGI in the test with CAKI-1 renal and with HL-60(TB) leukemia was greater than 100 µM in each case.

As for `COc1cc([C@@H]2OC[C@@H]3C(c4cc(OC)c5c(c4)OCO5)OC[C@@H]32)cc(OC)c1OC` (stereo partly drawn), the TGI in the test with HCC-2998 colon, with TK-10 renal, with A498 renal, with SW-620 colon, in the test with MOLT-4 leukemia and in the test on SF-295 CNS was greater than 100 µM in each case. In addition, the TGI in the test on MCF7 breast, in the test with CAKI-1 renal and in the test on MDA-MB-435 was greater than 100 µM each time.

With `CC(=O)OCC1OC(n2cnc(C(N)=S)c2N)C(OC(C)=O)C1OC(C)=O` (stereo not drawn), the TGI with HCC-2998 colon, with TK-10 renal, in the test with SW-620 colon, with MOLT-4 leukemia, in the test with SF-295 CNS and in the test on MCF7 breast was greater than 100 µM in each case. Besides, the TGI in the test on CAKI-1 renal, with HL-60(TB) leukemia and in the test with MDA-MB-435 was greater than 100 µM in each case.

For the compound `Cc1ccc(S(=O)(=O)OC2CSS(=O)CC2OS(=O)(=O)c2ccc(C)cc2)cc1` (stereo not drawn), the TGI in the test with HCC-2998 colon came to 30.9 µM; in the test on TK-10 renal, 28.5 µM; in the test with A498 renal, 30.1 µM; in the test on SW-620 colon, 18.9 µM; with MOLT-4 leukemia, 9.03 µM; with SF-295 CNS, 29.2 µM. Further, the TGI in the test on CAKI-1 renal was determined as 25.7 µM; in the test with HL-60(TB) leukemia it was 28.3 µM.

In the case of `COc1ccc(/C(COc2ccc3c(=O)cc(-c4ccccc4)oc3c2)=N\O)cc1`, the GI50 is 16.5 µM in the test with HCC-2998 colon; 10.7 µM in the test with TK-10 renal; greater than 35.6 µM with SW-620 colon; greater than 50 µM in the test with MOLT-4 leukemia; 12.5 µM with SF-295 CNS; 9.68 µM in the test on MCF7 breast. The GI50 was 1.83 µM in the test with CAKI-1 renal, greater than 14 µM in the test on HL-60(TB) leukemia and 6.77 µM with MDA-MB-435. Further, the TGI in the test with HCC-2998 colon was greater than 50 µM; with TK-10 renal it was 28.1 µM; in the test with SW-620 colon, greater than 50 µM; with MOLT-4 leukemia, greater than 50 µM; in the test with SF-295 CNS, 42.8 µM; with MCF7 breast, greater than 32.2 µM. Further, the figures for the TGI with CAKI-1 renal, in the test with HL-60(TB) leukemia and in the test on MDA-MB-435 were 28.4 µM, greater than 50 µM and 23.9 µM, respectively.

For the compound `CCOc1ccccc1N1C(=O)C(=O)C(c2nc3ccccc3o2)C(=O)C1=O`, the TGI with HCC-2998 colon, in the test on TK-10 renal, with A498 renal, in the test with SW-620 colon, in the test with MOLT-4 leukemia and with SF-295 CNS was greater than 100 µM in each case. Moreover, the TGI in the test with CAKI-1 renal and in the test on HL-60(TB) leukemia was greater than 100 µM each time.

For the compound `COc1cc(C(=O)O[C@H](C(=O)NCCCCCNC(=O)[C@@H](OC(=O)c2cc(OC)cc3c(C)cccc23)[C@]2(C)CO2)[C@]2(C)CO2)c2cccc(C)c2c1`, the GI50 in the test on HCC-2998 colon was 0.254 µM; in the test on TK-10 renal, 0.661 µM; with A498 renal it was 1.33 µM; in the test on SW-620 colon, less than 0.0149 µM; in the test with MOLT-4 leukemia, less than 0.01 µM; with SF-295 CNS, 2.5 µM. Further, the GI50 was less than 0.0123 µM in the test on MCF7 breast, 0.355 µM in the test with CAKI-1 renal and 0.016 µM in the test on MDA-MB-435. Moreover, the TGI in the test on HCC-2998 colon was 3.55 µM; with TK-10 renal it was 2.37 µM; in the test with A498 renal, 5.25 µM; with SW-620 colon, greater than 100 µM; in the test with MOLT-4 leukemia, greater than 100 µM; with SF-295 CNS, 6.75 µM. Further, the TGI in the test on CAKI-1 renal worked out at 1.89 µM; with MDA-MB-435 it was 0.0913 µM.

Regarding `COC(=O)C1(C)CCC(c2ccc(C)cc2)=C(CC(=O)O)C1` (stereo not drawn), the TGI with TK-10 renal, in the test on A498 renal, with SW-620 colon, in the test on MOLT-4 leukemia, in the test with SF-295 CNS and with MCF7 breast was greater than 100 µM in each case. Also, the TGI in the test on HL-60(TB) leukemia and in the test on MDA-MB-435 was greater than 100 µM each time.

`C[C@H]1[C@H](C)CC[C@]2(CO)CC[C@]3(C)C(=CC[C@@H]4[C@@]5(C)CCCNC(C)(C)[C@@H]5CC[C@]43C)[C@H]12`: the GI50 with HCC-2998 colon was 1.75 µM; in the test on TK-10 renal, 1.84 µM; in the test on A498 renal, 1.63 µM; in the test on SW-620 colon, 1.79 µM; in the test on MOLT-4 leukemia it was 1.37 µM; in the test on SF-295 CNS, 1.64 µM. Besides, the values for the GI50 in the test on MCF7 breast, in the test with CAKI-1 renal and in the test on MDA-MB-435 were 1.58 µM, 1.62 µM and 1.59 µM, respectively. The TGI amounted to 3.46 µM in the test with HCC-2998 colon; 3.32 µM in the test on TK-10 renal; 3.29 µM in the test with A498 renal; 3.54 µM with SW-620 colon; 3.15 µM with MOLT-4 leukemia; 3.06 µM in the test on SF-295 CNS. Besides, the TGI came to 3.39 µM in the test on MCF7 breast, 3.23 µM in the test with CAKI-1 renal and 3.21 µM in the test on MDA-MB-435.
